Source: the NIST ThermoML archive (doi:10.1021/je060017i)
± gives the expanded uncertainty stated by the source.

Conditions: 101.33 kPa, Liquid

Row | mass density (283.15 K) | speed of sound (283.15 K) | viscosity (283.15 K) | mass density (298.15 K) | speed of sound (298.15 K) | viscosity (298.15 K) | mass density (313.15 K) | speed of sound (313.15 K) | viscosity (313.15 K) | Compound
1 | 864.17 ± 0.55 kg/m3 | 1276.6 ± 1.6 m/s | 0.5618 ± 0.015 mPa·s | 849.04 ± 0.56 kg/m3 | 1202.2 ± 1.6 m/s | 0.4776 ± 0.014 mPa·s | 833.76 ± 0.57 kg/m3 | 1129.9 ± 1.6 m/s | 0.4088 ± 0.012 mPa·s | CC1CCCO1 (stereo not drawn) [2-methyltetrahydrofuran]
2 | 816.92 ± 0.59 kg/m3 | 1292.1 ± 1.7 m/s | 3.869 ± 0.087 mPa·s | 805.73 ± 0.6 kg/m3 | 1242.9 ± 1.6 m/s | 2.561 ± 0.059 mPa·s | 794.38 ± 0.6 kg/m3 | 1186.3 ± 1.6 m/s | 1.757 ± 0.042 mPa·s | CCCCO [butan-1-ol]
